Measurements reported in patent US20020028938A1, “Prostaglandin endoperoxide H synthase biosynthesis inhibitors” (priority 1997, published 2002).

Tests used:
[1] = target: T1, recombinant human Cox-1 (r-hu Cox1) (Homo sapiens, UniProt P23219); assay: Recombinant human PGHS-1 enzyme assay (RHUCX1); assay type: biochemical; conditions: for IC50: read-out: RHUCX1 IC50 (parenthetical value)
T1 construct: made in house; host or cells: baculovirus/Sf9 insect cells (microsomes)
Outline: (§1)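 Prostaglandin biosynthesis was measured as PGE2 output, read by enzyme immunoassay after a 2.5-minute room-temperature reaction stopped with HCl and neutralized with NaOH.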

[2] = tested on: carrageenan induced paw edema; assay: Carrageenan induced paw edema (CPE) in rats; assay type: in vivo; conditions: rat; for inhibition in vivo at 10 mg/kg: read-out: CPE % Inhib. @ 10 mpk
Protocol: For oral administration, test compounds were suspended on the day of use in 100% polyethyleneglycol (PEG 400) with a motorized homogenizer equipped with a Teflon-coated pestle (TRI-R Instrument, Jamaica, N.Y.).
To compare the mean responses of the treatment groups, analysis of variance was applied. Percent inhibition values were determined by comparing the individual treatment mean values to the mean of the control group. Linear regression was used to estimate IC50's/ED50's in appropriate assays.
Hingpaw edema was […] in male rats as described by Winter et al., Proc. Soc. Exp. Biol. Med., 1962, 111, 544. Briefly, male Sprague-Dawley rats weighing between 170 and 190 g were administered test compounds orally 1 hour prior to the subplantar injection of 0.1 ml of 1% sodium carrageenan (lambda carrageenan, Sigma Chemical Co., St Louis, Mo.) into the right hindpaw. Right paw volumes (ml) were measured immediately following injection of carrageenan for baseline volume measurements using a Buxco plethysmograph (Buxco Electronics, Inc., Troy, N.Y.). Three hours after the injection of carrageenan, right paws were remeasured and paw edema calculated for each rat by subtracting the zero time reading from the 3 hour reading. Data are reported as mean percent inhibition +/−SEM. Statistical significance of results was analyzed by Dunnetts multiple comparison test where p<0.05 was considered statistically significant.

[3] = target: T2, recombinant human Cox-2 (r-hu Cox-2) (Homo sapiens, UniProt P35354); assay: Recombinant human PGHS-2 enzyme assay (RHUCX2); assay type: biochemical; conditions: for IC50: read-out: RHUCX2 IC50 (parenthetical value); for inhibition at 0.01 µM / inhibition at 0.1 µM / inhibition at 1 µM: read-out: RHUCX2 % Inh. at Dose
T2 construct: made in house; host or cells: baculovirus/Sf9 insect cells (microsomes)
T2 sequence (P35354 18-604): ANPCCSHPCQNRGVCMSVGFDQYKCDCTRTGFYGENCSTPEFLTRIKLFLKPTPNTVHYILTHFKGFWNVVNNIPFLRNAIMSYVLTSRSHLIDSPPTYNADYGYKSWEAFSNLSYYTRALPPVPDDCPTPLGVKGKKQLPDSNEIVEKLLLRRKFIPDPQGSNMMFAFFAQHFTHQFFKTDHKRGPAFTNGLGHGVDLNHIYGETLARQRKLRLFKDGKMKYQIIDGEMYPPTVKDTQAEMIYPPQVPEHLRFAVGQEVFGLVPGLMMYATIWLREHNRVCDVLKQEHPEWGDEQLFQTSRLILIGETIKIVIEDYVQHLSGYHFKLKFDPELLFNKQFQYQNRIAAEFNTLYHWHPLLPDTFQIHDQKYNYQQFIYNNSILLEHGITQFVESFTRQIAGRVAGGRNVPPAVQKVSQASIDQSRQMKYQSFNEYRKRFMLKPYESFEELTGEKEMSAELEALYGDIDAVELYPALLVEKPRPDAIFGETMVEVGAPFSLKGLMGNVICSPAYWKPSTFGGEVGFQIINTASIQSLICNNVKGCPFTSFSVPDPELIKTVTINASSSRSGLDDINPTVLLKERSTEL
Outline: as §1

[4] = tested on: air pouch prostaglandin biosynthesis (Cox-2); assay: Carrageenan induced air pouch prostaglandin biosynthesis model (CAP); assay type: in vivo, rat; conditions: for inhibition in vivo at 3 mg/kg: 4 h, read-out: CAP % Inhib. @ 3 mpk; for ED50: Rattus norvegicus
Outline: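 Male Sprague Dawley rats with dorsal air pouches (20 mL air day 0, 10 mL day 3) received 0.2% lambda carrageenan in saline into the pouch on day 7. Compounds dosed at 0.1 to 10 mg/kg 30 min before carrageenan; pouch lavaged 4 h later, prostaglandins measured by EIA. Percent inhibition versus control mean; ED50 by linear regression.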

[5] = target: T3, human amnionic whole cell cyclooxygenase-2 (WISH cells) (Homo sapiens, UniProt P35354); assay: IL-1β induced PGE2 production in WISH cells; assay type: cell-based; conditions: read-out: Wish IC50 (parenthetical value)
T3 construct: endogenous in cells; host or cells: human amnionic WISH cells, induced with IL-1beta
T3 sequence (P35354 18-604): T2 sequence (P35354 18-604)
Outline: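 Confluent (80%) WISH cells were stimulated with 5 ng/ml IL-1β in serum-free Neuman-Tytell medium, with or without test compound in DMSO (0.01% v/v). PGE2 in the culture medium was measured by EIA against standards prepared in the same medium, read by optical density.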

[6] = target: T4, Human Whole Platelet Cyclooxygenase-1 (Homo sapiens, UniProt P23219); assay: Human Whole Platelet Cyclooxygenase-1 assay (HWPX); assay type: cell-based; conditions: for IC50: read-out: HWPX IC50 (parenthetical value)
T4 construct: from tissue; host or cells: human blood: isolated platelets (A4) or heparinised whole blood (A9)
Outline: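 Washed platelets from healthy-donor ACD blood were pre-incubated with compound for 10 min, then stimulated with calcium ionophore A23187 (8.8 μM final) for 10 min. Reaction stopped with cold 6 mM EDTA; thromboxane in supernatants quantified with a commercial kit.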

[7] = read-out: RHUCX1 % Inh. at Dose
[8] = 10 mpk oral, 3 hours after carrageenan

T1 sequence (P23219 24-599): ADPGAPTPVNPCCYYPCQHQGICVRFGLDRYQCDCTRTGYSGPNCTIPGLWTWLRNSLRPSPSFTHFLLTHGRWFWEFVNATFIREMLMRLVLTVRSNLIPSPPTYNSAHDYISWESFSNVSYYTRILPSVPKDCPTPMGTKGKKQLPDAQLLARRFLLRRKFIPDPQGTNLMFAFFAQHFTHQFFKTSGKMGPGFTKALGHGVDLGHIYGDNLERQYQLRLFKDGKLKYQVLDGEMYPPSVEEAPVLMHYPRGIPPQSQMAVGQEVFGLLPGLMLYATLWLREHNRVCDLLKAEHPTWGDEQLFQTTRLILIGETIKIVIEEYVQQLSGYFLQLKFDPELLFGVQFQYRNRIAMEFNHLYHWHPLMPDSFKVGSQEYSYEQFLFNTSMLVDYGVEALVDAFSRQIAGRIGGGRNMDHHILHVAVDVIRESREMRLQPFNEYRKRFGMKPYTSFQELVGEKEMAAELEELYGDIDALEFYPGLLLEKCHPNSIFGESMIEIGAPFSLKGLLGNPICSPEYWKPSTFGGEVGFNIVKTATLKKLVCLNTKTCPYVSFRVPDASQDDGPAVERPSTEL
T4 sequence (P23219 24-599): as above

inhibition at 100 µM [1, 7] | melting point | IC50 [3] | IC50 [5] | IC50 [6] | SMILES | inhibition in vivo at 10 mg/kg [2, 8] | inhibition in vivo at 3 mg/kg ([4]; 3 mpk, rat) | ED50 [4] | further results
 |  | 49 nM | 32 nM |  | NS(=O)(=O)c1ccc(-c2cnn(-c3ccc(F)c(F)c3)c(=O)c2Oc2ccc(F)cc2)cc1 [Example 388, 2-(3,4-Difluophenyl)-4-(4-fluorophenoxy)-5-[4-(aminosulfonyl)phenyl]-3(2H)-pyridazinone] |  |  |  | RHUCX1 % Inh. at Dose (μM) ([1]; 1 μM): 36 @ 1%; RHUCX1 % Inh. at Dose (μM) ([1]; 10 μM): 74 @ 10%; CPE % Inhib. @ 10 mpk [2, 8]: 28%; HWPX % Inhib. at Dose (μM) ([6]; 0.3 μM): 0 @ .3%; CAP % Inhib. @ 3 mpk ([4]; 3 mpk, rat): 80%
 | 169 to 171 °C |  | 18 nM | 902 nM | CC(C)COc1c(-c2ccc(S(N)(=O)=O)cc2)cnn(-c2ccc(F)c(F)c2)c1=O [Example 403, 2-(3,4-Difluorophenyl)-4-(2-methylpropoxy)-5-[4-(aminosulfonyl)phenyl]-3(2H)-pyridazinone] | 43% | 68.5% | 0.35 mg/kg | IC50 [1]: 151000 nM; inhibition at 0.01 µM [3]: 36%; inhibition at 0.1 µM [3]: 64%; inhibition at 1 µM [3]: 92%
6% | 178 to 180 °C | 147 nM | 18 nM | 2690 nM | CS(=O)(=O)c1ccc(-c2cnn(-c3ccc(F)c(F)c3)c(=O)c2Oc2ccc(F)cc2)cc1 [Example 109, 2-(3,4-Difluorophenyl)-4-(4-fluorophenoxy)-5-[4-(methylsulfonyl)phenyl]-3(2H)-pyridazinone] | 13% | 71% |  | 
54% | 218 to 220 °C | 62 nM | 46 nM | 2950 nM | NS(=O)(=O)c1ccc(-c2cnn(Cc3ccc(F)c(F)c3F)c(=O)c2-c2ccc(F)cc2)cc1 [Example 153, 2-(2,3,4-Trifluorobenzyl)-4-(4-fluorophenyl)-5-[4-(aminosulfonyl)phenyl]-3(2H)-pyridazinone] |  | 51% |  | inhibition at 10 µM ([1]; 10 μM, read-out: RHUCX1 % Inh. at Dose): 35%
5% | 211 to 213 °C | 136 nM |  |  | CS(=O)(=O)c1ccc(-c2cnn(-c3cccc(Cl)c3)c(=O)c2Oc2ccc(F)cc2)cc1 [Example 112, 2-(3-Chlorophenyl)-4-(4-fluorophenoxy)-5-[4-(methylsulfonyl)phenyl]-3(2H)-pyridazinone] | 21% | 42.5% |  | 
25% | 132 to 136 °C |  | 40 nM | 13800 nM | CC(C)COc1c(-c2ccc(S(N)(=O)=O)cc2)cnn(-c2ccc(F)cc2)c1=O [Example 397, 2-(4-Fluorophenyl)-4-(2-methylpropoxy)-5-[4-(aminosulfonyl)phenyl]-3(2H)-pyridazinone] |  | 70% |  | inhibition at 0.01 µM [3]: 39%; inhibition at 0.1 µM [3]: 58%; inhibition at 1 µM [3]: 93%
0% |  | 1090 nM |  |  | CC(C)CCc1c(-c2ccc(S(N)(=O)=O)c(F)c2)cnn(CC(F)(F)F)c1=O [Example 226] | 21% | 40.5% |  | 
0% | 60 to 65 °C | 30 nM | 2 nM | 1620 nM | CC(C)CCc1c(-c2ccc(S(C)(=O)=O)cc2)cnn(-c2cccc(Cl)c2)c1=O [Example 366, 2-(3-Chloropenyl)-4-(3-methylbutyl)-5-[4-(methysulfonyl)phenyl]-3(2H)-pydazinone] |  | 63% | 1.5 mg/kg | 
 | 187 to 188 °C | 135 nM | 30 nM | 17500 nM | CS(=O)(=O)c1ccc(-c2cnn(-c3ccc(F)c(F)c3)c(=O)c2-c2ccc(Cl)cc2)cc1 [Example 106, 2-(3,4-Difluorophenyl)-4-(4-chlorophenyl)-5-[4-(methylsulfonyl)phenyl]-3(2H)-pyridazinone] |  | 47% |  | inhibition at 200 µM ([1]; 200 μM, read-out: RHUCX1 % Inh. at Dose): 19%
12% | 121 to 128 °C | 27 nM |  |  | CC(C)COc1c(-c2ccc(S(C)(=O)=O)cc2)cnn(-c2ccc(F)cc2)c1=O [Example 376, 2-(4-Fluorophenyl)-4-(2-methylpropoxy)-5-[4-(methylsulfonyl)phenyl]-3(2H)-pyridazinone] | 17% | 77.5% |  | 
 |  | 720 nM | 54 nM | 3500 nM | CC(=O)NS(=O)(=O)c1ccc(-c2cnn(CC(F)(F)F)c(=O)c2OCC(C)(C)CO)cc1 [Example 528, N-[[4-[2-(2,2,2-Trifluoroethyl)-4-(3-hydroxy-2,2-dimethyl-1-propoxy)-2H-pyridazin-3-on-5-yl]phenyl]sulfonyl]acetamide] | 40% |  | 1.4 mg/kg | IC50 [1]: 3400 nM

SMILES | inhibition at 100 µM [1, 7] | melting point | IC50 [3] | IC50 [5] | IC50 [6] | inhibition in vivo at 10 mg/kg [2, 8] | inhibition in vivo at 3 mg/kg ([4]; 3 mpk, rat) | ED50 [4] | further results
CC(C)CCOc1c(-c2ccc(S(C)(=O)=O)cc2)cnn(-c2ccc(F)c(F)c2)c1=O [Example 347, 2-(3,4-Difluorophenyl)-4-(3-methyl-1-butoxy)-5-[4-(methylsulfonyl)phenyl]-3(2H)-pyridazinone] | 11% | 121 to 123 °C | 75 nM |  |  | 27% | 66.5% |  | 
CC(=O)CCOc1c(-c2ccc(S(C)(=O)=O)cc2)cnn(-c2ccc(F)c(F)c2)c1=O [Example 467, 2-(3,4-Difluorophenyl)-4-(3-oxo-1-butoxy)-5-[4-(methylsulfonyl)phenyl]-3(2H)-pyridazinone] | 4% | 134 to 135 °C | 1960 nM | 135 nM |  |  |  | 0.4 mg/kg | CPE ED30 ([2]; oral): ED30 = 1.7
CC(C)(O)CCOc1c(-c2ccc(S(C)(=O)=O)cc2)cnn(-c2cccc(Cl)c2)c1=O [Example 475, 2-(3-Chlorophenyl)-4-(3-hydroxy-3-methyl-1-butoxy)-5-[4-(methylsulfonyl)phenyl]-3(2H)-pyridazinone] | 0% |  | 710 nM | 440 nM |  | 33% |  | 1.4 mg/kg | inhibition at 100 µM ([6]; 100 μM, read-out: HWPX % Inhib. at Dose): 50%
